Each compound was assayed on 935938-334-R-J1-PDC complex spheroid viability (assay: Anticancer human tumor 935938-334-R-J1-PDC patient-derived small intestine adenocarcinoma cell line growth inhibition [POLQ]). Conditions: second compound 3.16 µM; first compound 10 µM; hits give low values.
Method: Multicellular complex tumor spheroid response to Polymerase (POL) inhibitors (novobiocin, ART-558, RP6685) in combination with a variety of drugs and investigational agents in selected tumor cell lines
The POL inhibitors (novobiocin, ART-558, and RP6685) were evaluated both individually and in combination with standard of care and investigational anticancer small molecules within a complex spheroid model of solid tumors. . Complex spheroids include a stromal component modeled by human endothelial cells (HUVEC) and fibroblasts modeled by human mesenchymal stem cells (MSCs). The concentration ranges selected for each drug and investigational agent were based upon clinically achievable concentrations if the clinical Cmax of the agent was known.
Compounds. The drugs and investigational agents: novobiocin (NSC847541), ART-558 (NSC835418), RP-6685 (NSC848927), peposertib (NSC802822), ceralasertib (NSC780249), elimusertib (NSC800525), camonsertib (NSC841442), AZD-1390 (NSC803789), olaparib (NSC753686), talazoparib (NSC767125), rucaparib (NSC756644), sotorasib (NSC818433), MRTX-1133 (NSC836407), SN-38 (NSC673596), topotecan (NSC609699), epotoside (NSC141540), doxorubicin (NSC123127), gemcitabine (NSC613327), 5-fluorouracil (NSC19893), paclitaxel (NSC125973), vemurafenib (NSC761431), MSA-2 (NSC828583), SN-011 (NSC837082), adavosertib (NSC754352), prexasertib (NSC758257), carboplatin (NSC241240) and oxaliplatin (NSC266046), were obtained from the National Cancer Institute (NCI) Developmental Therapeutics Program Chemical Repository (21). The FDA-approved anticancer drug set is available from the Developmental Therapeutics Program at https://dtp.cancer.gov/organization/dscb/obtaining/. […] The stock solutions were prepared in dimethyl sulfoxide (DMSO, Sigma-Aldrich, St. Louis, MO, cat. D2650), except for the platinum compounds which were prepared in saline (Quality Biological, Gaithersburg, MD, cat. 114-055-101), at 800-fold the tested concentration and stored at -70 degrees C prior to their use. All drugs and investigational agents were tested over a range starting from a high concentration at or near the clinical Cmax and decreasing in half-log increments. If the clinical Cmax for an agent had not been determined, the highest concentration tested was 10 microM, except for SN-38, which was tested at a high concentration of 1 microM.
Cell Culture. All cells were maintained in an incubator at 37 degrees C and 5% CO2 with 95% humidity. The PDC lines were cultured according to standard operating procedures established by the NCI PDMR (https://pdmr.cancer.gov). Table 3 of the manuscript, lists the cell lines along with the number of the three cell types plated to form the mct-spheroids and media for tumor cell growth. After thawing, all PDC lines, except 997537-175-T-J1-PDC and 415267-285-R-J2-PDC, were cultured in Matrigel-coated flasks prepared with a working solution of 1X Ham's F-12 nutrient mix, without supplementation (Thermo Fisher Scientific, cat. 11765054), 100 U/mL penicillin-streptomycin (Thermo Fisher Scientific, cat. 15140122), and 2.5% Matrigel (Corning Inc., Corning, NY, cat. 354248) for the first three passages. The two PDC lines 997537-175-T-J1-PDC and 415267-285-R-J2-PDC were cultured on uncoated flasks. The 857933-349-R-J2-PDC line was cultured in 6C/Colon 1B media containing advanced DMEM/F-12 (Thermo Fisher Scientific, cat. 12634028), 10 mM HEPES (Thermo Fisher Scientific, cat. 15630080), 1X GlutaMAX supplement (Thermo Fisher Scientific, cat. 35050061), 0.1 mg/mL primocin (InvivoGen, San Diego, CA, cat. ant-pm-2), 10% defined fetal bovine serum, heat inactivated (HyClone Laboratories Inc., Logan, UT, cat. SH30070.03HI), 50% L-WRN conditioned media (ATCC, cat. CRL-3276), 1.25 mM N-Acetyl-L-cysteine (Sigma-Aldrich, cat. A9165), 10 mM nicotinamide (Sigma-Aldrich, cat. N0636), 1X B-27 supplement (Thermo Fisher Scientific, cat. 17504044), 1X N-2 supplement (Thermo Fisher Scientific, cat. […]
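Further: spheroids exposed to drugs for seven days before viability read; 100% = DMSO vehicle control wells.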

| SMILES | viability, T/C |
| --- | --- |
| COc1cccc2c1C(=O)c1c(O)c3c(c(O)c1C2=O)CC(O)(C(=O)CO)CC3OC1CC(N)C(O)C(C)O1 (stereo not given) + Nc1ccc(C#CCN(C(=O)Cc2ncc(C(F)(F)F)cc2C(F)(F)F)c2ccc(F)cc2)nn1 | 5.57% |
| O=c1[nH]cc(F)c(=O)[nH]1 + Nc1ccc(C#CCN(C(=O)Cc2ncc(C(F)(F)F)cc2C(F)(F)F)c2ccc(F)cc2)nn1 | 53.7% |

Same assay, conditions: second compound 10 µM; first compound 0.0316 µM; hits give low values

| SMILES | viability, T/C |
| --- | --- |
| CC1COCCN1c1cc(-c2ccnn2C)c2ccnc(-c3ccn[nH]3)c2n1 (stereo not given) + Cc1cccc(N(C)C(=O)C2C(O)CCN2c2nc(C)cc(C(F)(F)F)c2C#N)c1 | 86% |
| COc1cccc2c1C(=O)c1c(O)c3c(c(O)c1C2=O)CC(O)(C(=O)CO)CC3OC1CC(N)C(O)C(C)O1 (stereo not given) + Nc1ccc(C#CCN(C(=O)Cc2ncc(C(F)(F)F)cc2C(F)(F)F)c2ccc(F)cc2)nn1 | 68.1% |
| O=c1[nH]cc(F)c(=O)[nH]1 + Nc1ccc(C#CCN(C(=O)Cc2ncc(C(F)(F)F)cc2C(F)(F)F)c2ccc(F)cc2)nn1 | 125% |

Same assay, conditions: second compound 10 µM; first compound 0.1 µM; hits give low values

| SMILES | viability, T/C |
| --- | --- |
| CC1COCCN1c1cc(-c2ccnn2C)c2ccnc(-c3ccn[nH]3)c2n1 (stereo not given) + Cc1cccc(N(C)C(=O)C2C(O)CCN2c2nc(C)cc(C(F)(F)F)c2C#N)c1 | 51.9% |
| COc1cccc2c1C(=O)c1c(O)c3c(c(O)c1C2=O)CC(O)(C(=O)CO)CC3OC1CC(N)C(O)C(C)O1 (stereo not given) + Nc1ccc(C#CCN(C(=O)Cc2ncc(C(F)(F)F)cc2C(F)(F)F)c2ccc(F)cc2)nn1 | 38.4% |
| O=c1[nH]cc(F)c(=O)[nH]1 + Nc1ccc(C#CCN(C(=O)Cc2ncc(C(F)(F)F)cc2C(F)(F)F)c2ccc(F)cc2)nn1 | 101% |

Same assay, conditions: second compound 10 µM; first compound 0.316 µM; hits give low values

| SMILES | viability, T/C |
| --- | --- |
| CC1COCCN1c1cc(-c2ccnn2C)c2ccnc(-c3ccn[nH]3)c2n1 (stereo not given) + Cc1cccc(N(C)C(=O)C2C(O)CCN2c2nc(C)cc(C(F)(F)F)c2C#N)c1 | 32.1% |
| COc1cccc2c1C(=O)c1c(O)c3c(c(O)c1C2=O)CC(O)(C(=O)CO)CC3OC1CC(N)C(O)C(C)O1 (stereo not given) + Nc1ccc(C#CCN(C(=O)Cc2ncc(C(F)(F)F)cc2C(F)(F)F)c2ccc(F)cc2)nn1 | 38% |
| O=c1[nH]cc(F)c(=O)[nH]1 + Nc1ccc(C#CCN(C(=O)Cc2ncc(C(F)(F)F)cc2C(F)(F)F)c2ccc(F)cc2)nn1 | 91.8% |

Same assay, conditions: second compound 10 µM; first compound 1 µM; hits give low values

| SMILES | viability, T/C |
| --- | --- |
| CC1COCCN1c1cc(-c2ccnn2C)c2ccnc(-c3ccn[nH]3)c2n1 (stereo not given) + Cc1cccc(N(C)C(=O)C2C(O)CCN2c2nc(C)cc(C(F)(F)F)c2C#N)c1 | 18.4% |
| COc1cccc2c1C(=O)c1c(O)c3c(c(O)c1C2=O)CC(O)(C(=O)CO)CC3OC1CC(N)C(O)C(C)O1 (stereo not given) + Nc1ccc(C#CCN(C(=O)Cc2ncc(C(F)(F)F)cc2C(F)(F)F)c2ccc(F)cc2)nn1 | 18.9% |
| O=c1[nH]cc(F)c(=O)[nH]1 + Nc1ccc(C#CCN(C(=O)Cc2ncc(C(F)(F)F)cc2C(F)(F)F)c2ccc(F)cc2)nn1 | 58.3% |

Same assay, conditions: second compound 10 µM; first compound 3.16 µM; hits give low values

| SMILES | viability, T/C |
| --- | --- |
| CC1COCCN1c1cc(-c2ccnn2C)c2ccnc(-c3ccn[nH]3)c2n1 (stereo not given) + Cc1cccc(N(C)C(=O)C2C(O)CCN2c2nc(C)cc(C(F)(F)F)c2C#N)c1 | 22.6% |
| COc1cccc2c1C(=O)c1c(O)c3c(c(O)c1C2=O)CC(O)(C(=O)CO)CC3OC1CC(N)C(O)C(C)O1 (stereo not given) + Nc1ccc(C#CCN(C(=O)Cc2ncc(C(F)(F)F)cc2C(F)(F)F)c2ccc(F)cc2)nn1 | 5.97% |
| O=c1[nH]cc(F)c(=O)[nH]1 + Nc1ccc(C#CCN(C(=O)Cc2ncc(C(F)(F)F)cc2C(F)(F)F)c2ccc(F)cc2)nn1 | 52.4% |

Same assay, conditions: second compound 10 µM; first compound 10 µM; hits give low values

| SMILES | viability, T/C |
| --- | --- |
| CC1COCCN1c1cc(-c2ccnn2C)c2ccnc(-c3ccn[nH]3)c2n1 (stereo not given) + Cc1cccc(N(C)C(=O)C2C(O)CCN2c2nc(C)cc(C(F)(F)F)c2C#N)c1 | 22.8% |
| COc1cccc2c1C(=O)c1c(O)c3c(c(O)c1C2=O)CC(O)(C(=O)CO)CC3OC1CC(N)C(O)C(C)O1 (stereo not given) + Nc1ccc(C#CCN(C(=O)Cc2ncc(C(F)(F)F)cc2C(F)(F)F)c2ccc(F)cc2)nn1 | 6.61% |
| O=c1[nH]cc(F)c(=O)[nH]1 + Nc1ccc(C#CCN(C(=O)Cc2ncc(C(F)(F)F)cc2C(F)(F)F)c2ccc(F)cc2)nn1 | 56.7% |

Source: PubChem BioAssay AID1963829 (Molecular Pharmacology Branch, DTP, NCI, 2024)
